What was measured:
[1] = AUC (0 to t) in Sprague-Dawley rat treated with luteolin at 6.5 mg/kg, iv; assay type: ADME, organism-based; design: dose 6.5 mg/kg, route intravenous; conditions: plasma
[2] = AUC (0 to infinity) in Sprague-Dawley rat treated with luteolin at 6.5 mg/kg, iv; assay type: ADME, organism-based; design: time infinity, dose 6.5 mg/kg, route intravenous; conditions: plasma
[3] = Mean residence time (0 to t) in Sprague-Dawley rat treated with luteolin at 6.5 mg/kg, iv; assay type: ADME, organism-based; design: dose 6.5 mg/kg, route intravenous; conditions: in vivo
[4] = Mean residence time (0 to infinity) in Sprague-Dawley rat treated with luteolin at 6.5 mg/kg, iv; assay type: ADME, organism-based; design: dose 6.5 mg/kg, route intravenous; conditions: in vivo
[5] = Half life in Sprague-Dawley rat treated with luteolin at 6.5 mg/kg, iv; assay type: ADME, organism-based; design: dose 6.5 mg/kg, route intravenous; conditions: in vivo
Rattus norvegicus = test: Clearance in Sprague-Dawley rat treated with luteolin at 6.5 mg/kg, iv; assay type: ADME, organism-based; design: dose 6.5 mg/kg, route intravenous; conditions: in vivo
[6] = Volume of distribution in Sprague-Dawley rat treated with luteolin at 6.5 mg/kg, iv; assay type: ADME, organism-based; design: dose 6.5 mg/kg, route intravenous; conditions: in vivo
[7] = Cmax in Sprague-Dawley rat treated with luteolin at 6.5 mg/kg, iv; assay type: ADME, organism-based; design: dose 6.5 mg/kg, route intravenous; conditions: in vivo
[8] = Drug excretion in Sprague-Dawley rat urine treated with luteolin at 6.5 mg/kg, iv after 24 hrs; assay type: ADME, organism-based; design: dose 6.5 mg/kg, route intravenous; conditions: read-out: Drug excretion
[9] = Drug excretion in Sprague-Dawley rat urine treated with luteolin at 6.5 mg/kg, iv after 24 hrs co-treated with COMT inhibitor entacapone; assay type: ADME, organism-based; design: dose 6.5 mg/kg, route intravenous; conditions: read-out: Drug excretion
[10] = Drug recovery in Sprague-Dawley rat urine assessed as retention time treated with luteolin at 6.5 mg/kg, iv by reverse-phase HPLC method; assay type: ADME, organism-based; design: dose 6.5 mg/kg, route intravenous; conditions: in vivo
Liver [11] = test: Drug metabolism in Sprague-Dawley rat liver homogenate treated with luteolin at 20 uM after 20 to 60 mins; assay type: ADME, tissue-based; conditions: tissue homogenate
Kidney [12] = test: Drug metabolism in Sprague-Dawley rat kidney homogenate treated with luteolin at 20 uM after 20 to 60 mins; assay type: ADME, tissue-based; conditions: tissue homogenate
Lung [13] = test: Drug metabolism in Sprague-Dawley rat lung homogenate treated with luteolin at 20 uM after 20 to 60 mins; assay type: ADME, tissue-based; conditions: tissue homogenate
Small intestine [14] = test: Drug metabolism in Sprague-Dawley rat small intestine homogenate treated with luteolin at 20 uM after 20 to 60 mins; assay type: ADME, tissue-based; conditions: tissue homogenate
[15] = Drug metabolism in Sprague-Dawley rat erythrocytes homogenate treated with luteolin at 20 uM after 20 to 60 mins; assay type: ADME, cell-based; conditions: erythrocyte
Liver [16] = test: Drug metabolism in Sprague-Dawley rat liver homogenate treated with luteolin at 20 uM after 20 to 60 mins in presence of COMT inhibitor entacapone; assay type: ADME, tissue-based; conditions: tissue homogenate
Kidney [17] = test: Drug metabolism in Sprague-Dawley rat kidney homogenate treated with luteolin at 20 uM after 20 to 60 mins in presence of COMT inhibitor entacapone; assay type: ADME, tissue-based; conditions: tissue homogenate
Lung [18] = test: Drug metabolism in Sprague-Dawley rat lung homogenate treated with luteolin at 20 uM after 20 to 60 mins in presence of COMT inhibitor entacapone; assay type: ADME, tissue-based; conditions: tissue homogenate
Small intestine [19] = test: Drug metabolism in Sprague-Dawley rat small intestine homogenate treated with luteolin at 20 uM after 20 to 60 mins in presence of COMT inhibitor entacapone; assay type: ADME, tissue-based; conditions: tissue homogenate
[20] = Drug metabolism in Sprague-Dawley rat erythrocytes homogenate treated with luteolin at 20 uM after 20 to 60 mins in presence of COMT inhibitor entacapone; assay type: ADME, cell-based; conditions: erythrocyte
Liver microsome = test: Stability in Sprague-Dawley rat liver microsomes at 10 uM after 10 to 30 mins by HPLC analysis; assay type: ADME

- AUC(0-t) [1]: 2090 ng·h/mL
- AUC(0-inf) [2]: 2280 ng·h/mL
- MRT last [3]: 1.24 h
- MRT inf [4]: 1.76 h
- half-life [5]: 1.57 h
- clearance (Rattus norvegicus): 49 mL/min/kg
- Vd [6]: 6.34 L/kg
- Cmax [7]: 2060 ng/mL
- dose excreted at 24 h [8]: 1.92%
- dose excreted at 24 h [9]: 0.451%
- Retention_time [10]: 29.35 min
- Drug metabolism (Liver [11]): metabolite_detected
- Drug metabolism (Kidney [12]): metabolite_detected
- Drug metabolism (Lung [13]): metabolite_detected
- Drug metabolism (Small intestine [14]): metabolite_detected
- Drug metabolism [15]: metabolite_detected
- Drug metabolism (Liver [16]): metabolite_not_detected
- Drug metabolism (Kidney [17]): metabolite_not_detected
- Drug metabolism (Lung [18]): metabolite_not_detected
- Drug metabolism (Small intestine [19]): metabolite_not_detected
- Drug metabolism [20]: metabolite_not_detected
- Stability (Liver microsome): Unstable
SMILES: COc1cc(-c2cc(=O)c3c(O)cc(O)cc3o2)ccc1O [CHRYSOERIOL]
